Results as given in article PMC3017600 (Nucleic Acids Research, 2010).
One block for each molecule: values may come before it. Where no end group is shown, it is not given here. [ ]: non-standard residue; d: D form. pS = N[C@@H](COP(=O)(O)O)C(=O)O

Assays:
[1] = system: TopBP1(1–290) double mutants; experiment: Fluorescence polarization binding, double mutants; set-up: species or system human; settings: putative binding sites in both BRCT1 and BRCT2 disrupted
TopBP1(1–290) wild-type = TopBP1(1–290) wild-type (Homo sapiens, UniProt Q92547); assay type: binding; settings: fluorescence polarization; 10 nM fluorescein-labelled peptide; 4°C, 30 min
TopBP1(1–290) [2] = experiment: Co-precipitation; assay type: binding, human; settings: Glutathione Sepharose; no Mg-ATP; SDS–PAGE
TopBP1(1–290) [3] = molecular target: TopBP1(1–290) (human, UniProt Q92547 1-290); experiment: fluorescence polarisation
Sequence of TopBP1(1–290) (human, UniProt Q92547 1-290) (Q92547 1-290): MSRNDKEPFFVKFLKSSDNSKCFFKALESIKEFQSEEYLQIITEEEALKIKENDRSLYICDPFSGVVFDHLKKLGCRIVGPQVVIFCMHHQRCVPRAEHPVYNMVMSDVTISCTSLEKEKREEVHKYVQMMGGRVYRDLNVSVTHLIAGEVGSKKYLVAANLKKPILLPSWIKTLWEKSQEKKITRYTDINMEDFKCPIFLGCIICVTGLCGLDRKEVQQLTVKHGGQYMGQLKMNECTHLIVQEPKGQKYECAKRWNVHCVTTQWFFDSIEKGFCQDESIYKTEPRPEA

Sequence of TopBP1(1–290) wild-type (Q92547 1-290): as above

B1: GST-Rad9Tail: GST-fusion with the C-terminus of human Rad9 (amino acids 264–391), expressed in E. coli (protein)
chain: TLSDTDSHSQDLGSPERHQPVPQLQAHSTPHPDDFANDDIDSYMIAMETTIGNEGSRVLPSISLSPGPQPPKSPGPHSEEEDEAEPSTVPGTPPPKKFRSLFFGSILAPVRSPQGPSPVLAEDSEGEG
modifications: left off: GST, N-terminal, kept
Co-precipitation of TopBP1(1–290) by GST fusion incubated with CK2α in the absence of Mg-ATP (TopBP1(1–290) [2]): failed to co-precipitate detectable

Molecule: fluorescein-GGPSPVLAED[pS]EGEG (also: phosphoserine at 387 (Rad9 numbering)) [Rad9, pS387 fluorescein-labelled peptide]
Kd (TopBP1(1–290) [3]): 2100 nM

The next lines start with the values.

Interaction with TopBP1(1–290) double mutants (in words) [1]: no measurable interaction
Molecule: fluorescein-GGPSPVLAED[pS]EGEG [Rad9, pS387]

Binding to wild-type TopBP1(1–290) (in words) (TopBP1(1–290) wild-type): no significant affinity was observed
Molecule: fluorescein-GGSDTDSH[pS]QDLGSPE [Rad9, pS272]
